Source: patent US12686853B2, “Methods and compositions for treatment of muscle disease with iPSC-induced human skeletal muscle stem cells” (UNIVERSITY OF MASSACHUSETTS, priority 2020, dated 2026)
“Also recorded” adds a separate entry of the source.

Tests used:
Format in all cases: cell-based, human
DUX4 target gene = assay: Losmapimod treatment of FSHD1 iMyotubes, NanoString digital RNA assays; parameters: dose or concentration left out as unconfirmed; conditions: Pre- or Post-differentiation treatment with Losmapimod, N2 medium
Source text: FIG. 21A: Schematic of Losmapimod treatment protocols for Pre-drug administration at the initiation of iMyotube differentiation and at Post iMyotube differentiation after 4 days in N2 differentiation medium. FIG. 21B: NanoString digital RNA assays of DUX4 target gene and muscle gene expression in carrier treated (UT) FSHID1 iMyoblasts and in iMyotube cultures Pre- or Post-differentiation treatment with […] Losmapimod. Normalized counts of expression are presented on linear scale with each dot corresponding to an individual culture. Data are presented as mean±SEM for each condition. For NanoString RNA quantification, 50 ng or 150 ng of total RNA was used for cell culture and xenografted TA muscle, respectively. A muscle NanoString panel was constructed with human specific probes for muscle protein genes, muscle master regulatory genes, developmental transcription factors, signaling genes and multiple housekeeping genes and used for all analysis on an nCounter SprintR profiler (NanoString Technologies, Seattle, WA). Raw mRNA counts were normalized to a series of housekeeping genes (e.g., RPL13A, GAPDH, GUUSB, and VCP) using nSolverR software (NanoString Technologies, Seattle, WA).

DUX4 [1] = assay: 5-AzaC treatment of proliferating iMyoblasts, qPCR in myotubes; conditions: lower concentrations
Protocol: (§1) FIG. 11E: qPCR assays of the expression of DUX4 target gene (MBD3L2) RNA and a muscle gene (MYH8) RNA of S2 cells (top panel) and iMyoblasts (bottom panel) following 24 hr treatment with increasing doses of 5-AzaC. 5-AzaC-treated S2 cultures were cultured for 6 days of S2 growth medium (GM) and 7 days in S3 differentiation medium (DM). 5-AzaC-treated iMyoblasts were cultured for 6 days in myoblast growth medium (GM) and 4 days in Opti-MEM differentiation medium. qPCR data were normalized to RPL13A and relative expression is shown normalized to […].
iPMs were treated for 24 hr with a pulse of epigenetic drugs, followed by culturing for 7 days in iPM growth medium and 7 days of iPMC differentiation medium. The cultured iPMs were then subjected to qPCR analysis to determine the expression of MBD3L2 RNA (a DUX4 biomarker) and MYH8 RNA (a muscle differentiation marker data now shown). […] See, FIG. 11D. At high 5-AzaC concentrations, MYH8 RNA expression decreased. […] Rickard et al., (2015). […] See, FIG. 11D.
Ribonucleic acid (RNA) was isolated either from cells in culture or from xenoengrafted TA muscles using the RNeasy® Plus Mini Kit (Qiagen) or Aurum® Total RNA Fatty and Fibrous Tissue kit (Bio-Rad) respectively per the manufacturer's specifications. […]

DUX4 [2] = assay: 5-AzaC treatment of FSHD ESC iPMs; conditions: data not shown
Protocol: iPMs were treated for 24 hr with a pulse of epigenetic drugs, followed by culturing for 7 days in iPM growth medium and 7 days of iPMC differentiation medium. The cultured iPMs were then subjected to qPCR analysis to determine the expression of MBD3L2 RNA (a DUX4 biomarker) and MYH8 RNA (a muscle differentiation marker data now shown). […] See, FIG. 11D. […] et al., (2015). […] See, FIG. 11D.

genome = assay: Genome-wide methylome analysis using Illumina chip assays after 5-AzaC treatment; conditions: data not shown
DUX4 [3] = assay: 24 hr 5-AzaC pulse of FSHD iPM (S2 cells), qPCR of MBD3L2 and MYH8 RNA
Protocol: as §1
To investigate epigenetic mechanisms responsible for DUX4 repression during reprogramming and iPM induction, a blinded screen was conducted to identify epigenetic drugs that activate DUX4 in FSHD iPM undergoing myogenesis.
iPMs were treated for 24 hr with a pulse of epigenetic drugs, followed by culturing for 7 days in iPM growth medium and 7 days of iPMC differentiation medium. The cultured iPMs were then subjected to qPCR analysis to determine the expression of MBD3L2 RNA (a DUX4 biomarker) and MYH8 RNA (a muscle differentiation marker data now shown). […] See, FIG. 11D. […]
For quantification of housekeeping genes, DUX4 biomarker or muscle differentiation marker expression, 20 ng of cDNA was used for each reaction. For quantification of DUX4 expression, 90-150 ng of cDNA was used in each reaction.

| SMILES | DUX4 target gene expression (DUX4 target gene) | DUX4 biomarker expression in myotubes (DUX4 [1]) | DUX4 expression (DUX4 [2]) | demethylation, genome-wide methylome analysis (genome) | DUX4 expression, as assayed by MBD3L2 RNA biomarker expression (DUX4 [3]; 24 hr pulse, then 7 days iPM growth medium and 7 days iPMC differentiation medium, qPCR) | MYH8 RNA expression (DUX4 [3]; high 5-AzaC concentrations) |
| --- | --- | --- | --- | --- | --- | --- |
| Cc1c(F)cc(C(=O)NC2CC2)cc1-c1ccc(C(=O)NCC(C)(C)C)cn1 [Losmapimod] | decreases; also recorded: inhibited |  |  |  |  |  |
| Nc1ncn([C@@H]2O[C@H](CO)[C@@H](O)[C@H]2O)c(=O)n1 [5-AzaC, 5-azacytidine] |  | only a small increase | high levels of DUX4 expression | selective demethylation of many sequences throughout the genome | effectively increased DUX4 expression in a concentration dependent manner; also recorded: can be reversed | decreased |
